Patent US10005771B2, “Bicyclic derivatives having β2 adrenergic agonist and M3 muscarinic antagonist activities” (Almirall, S.A., priority 2014, dated 2018)

How the values were obtained:
[1] = molecular target: T1, human muscarinic M3 receptors (Homo sapiens, UniProt P20309); assay: Human muscarinic M3 receptors binding assay ([3H]-NMS, CHO-K1 membranes); conditions: membranes from CHO-K1 cells, [3H]-NMS radioligand, two hours incubation
T1 construct: purchased Perkin Elmer; host or cells: CHO-K1 cells
Experimental: Test 2: Human Muscarinic M3 Receptors Binding Assays
The study of binding to human muscarinic M3 receptors was performed using commercial membranes (Perkin Elmer) prepared from CHO-K1 cells.
Radioligand binding experiments were conducted in 96 polypropylene well plates in a total volume of 200 μl. All reagents were dissolved in assay binding buffer (PBS with calcium and magnesium, SIGMA), except compounds that were dissolved in DMSO 100%. Non-specific binding (NSB) was measured in the presence of 1 μM atropine. [3H]-NM, used as the radioligand was incubated with membranes that express human muscarinic M3 at concentration of 4.9 μg/well.
After an incubation period of two hours with gentle shaking, 150 μl of the reaction mix were transferred to 96 GF/C filter plates (Millipore), previously treated with wash buffer (Tris 50 mM; NaCl 100 mM; pH: 7.4), containing 0.05% PEI (Sigma) during one hour. Bound and free [3H]-NMS were separated by rapid vacuum filtration in a manifold from Millipore and washed four times with ice cold wash buffer. After drying 30 min, 30 μl of OPTIPHASE Supermix were added to each well and radioactivity quantified using a Microbeta microplate scintillation counter.
The affinity of each test compound to the receptor was determined by using ten different concentrations ran in duplicate. IC50s were calculated using Activity Base software from IDBS and the four parameters-log equation.

[2] = molecular target: T2, human adrenergic β2 receptor (Homo sapiens, UniProt P07550); assay: Human adrenergic β2 receptor binding assay (3H-CGP12177, Sf9 membranes); conditions: membranes from Sf9 cells, 0.6 nM 3H-CGP12177, 60 minutes at room temperature
T2 construct: purchased Perkin Elmer; host or cells: Sf9 cells
Experimental: Test 1: Human Adrenergic β1 and β2 Receptor Binding Assays
The study of binding to human adrenergic beta1 and beta2 receptors was performed using commercial membranes prepared from Sf9 cells where they are overexpressed (Perkin Elmer). The membrane suspensions (16 μg/well for beta1 and 5 μg/well for beta2) in assay buffer (75 mM Tris/HCl with 12.5 mM MgCl2 and 2 mM EDTA pH=7.4) were incubated with 0.14 or 0.6 nM of 3H-CGP12177 (Amersham) for beta 1 and beta 2 receptors respectively in a final volume of 250 μl, in GFC Multiscreen 96 well plates (Millipore) previously treated with assay buffer containing 0.3% PEI (Sigma). Non specific binding was measured in the presence of 1 μM propanolol. Incubation was maintained for 60 minutes at room temperature and with gentle shaking. The binding reactions were terminated by filtration and washing with 2.5 volumes of Tris/HCl 50 mM pH=7.4. The affinity of each test compound to the receptor was determined by using ten different concentrations ran in duplicate. IC50s were calculated using Activity Base software from IDBS and the four parameters-log equation.

T1 sequence (P20309 whole entry): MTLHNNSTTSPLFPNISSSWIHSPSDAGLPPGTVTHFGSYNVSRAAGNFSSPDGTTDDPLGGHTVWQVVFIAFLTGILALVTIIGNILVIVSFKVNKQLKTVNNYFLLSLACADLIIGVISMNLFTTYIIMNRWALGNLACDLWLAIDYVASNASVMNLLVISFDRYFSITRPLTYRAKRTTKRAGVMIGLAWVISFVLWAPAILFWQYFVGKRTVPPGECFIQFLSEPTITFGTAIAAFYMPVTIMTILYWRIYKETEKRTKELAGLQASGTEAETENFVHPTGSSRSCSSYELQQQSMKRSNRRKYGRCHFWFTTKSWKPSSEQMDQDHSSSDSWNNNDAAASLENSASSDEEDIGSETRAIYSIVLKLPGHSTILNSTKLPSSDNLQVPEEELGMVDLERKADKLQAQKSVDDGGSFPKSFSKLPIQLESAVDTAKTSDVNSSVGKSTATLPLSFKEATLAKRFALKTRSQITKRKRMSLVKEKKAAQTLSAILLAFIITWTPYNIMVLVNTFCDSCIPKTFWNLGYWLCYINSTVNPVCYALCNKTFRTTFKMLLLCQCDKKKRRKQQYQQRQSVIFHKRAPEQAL

Compound	IC50 [1]	IC50 [2]
O=C1c2ccc(CNC[C@H](O)c3ccc(O)c4[nH]c(=O)ccc34)cc2CN1CCCCc1cccc(C2(C(=O)O[C@H]3CN4CCC3CC4)CCCCC2)c1 [Example 23, (3R)-1-azabicyclo[2.2.2]oct-3-yl 1-(3-{4-[5-({[(2R)-2-hydroxy-2-(8-hydroxy-2-oxo-1,2-dihydroquinolin-5-yl)ethyl]amino}methyl)-1-oxo-1,3-dihydro-2H-isoindol-2-yl]butyl}phenyl)cyclohexanecarboxylate]	0.61 nM	26 nM
COc1cc(OCC(=O)NCCCCc2cccc(C3(C(=O)O[C@H]4CN5CCC4CC5)CCCCC3)c2)c(Cl)cc1CNCC(O)c1ccc(O)c2[nH]c(=O)ccc12 (stereo partly drawn) [Example 24, (3R)-1-azabicyclo[2.2.2]oct-3-yl 1-{3-[4-({[2-chloro-4-({[2-hydroxy-2-(8-hydroxy-2-oxo-1,2-dihydroquinolin-5-yl)ethyl]amino}methyl)-5-methoxyphenoxy]acetyl}amino)butyl]phenyl}cyclohexanecarboxylate]	0.33 nM	1.9 nM
COc1cc(NC(=O)CCCc2cccc(C3(C(=O)OCC4CCNCC4)CCCCC3)c2)c(Cl)cc1CNC[C@H](O)c1ccc(O)c2[nH]c(=O)ccc12 [Example 28, piperidin-4-ylmethyl 1-[3-(4-{[2-chloro-4-({[(2R)-2-hydroxy-2-(8-hydroxy-2-oxo-1,2-dihydroquinolin-5-yl)ethyl]amino}methyl)-5-methoxyphenyl]amino}-4-oxobutyl)phenyl]cyclohexanecarboxylate]	0.36 nM	2.2 nM
COc1cc(NC(=O)CCCc2cccc(C3(C(=O)OCC4CCN(C)CC4)CCCCC3)c2)c(Cl)cc1CNC[C@H](O)c1ccc(O)c2[nH]c(=O)ccc12 [Example 29, (1-methylpiperidin-4-yl)methyl 1-[3-(4-{[2-chloro-4-({[(2R)-2-hydroxy-2-(8-hydroxy-2-oxo-1,2-dihydroquinolin-5-yl)ethyl]amino}methyl)-5-methoxyphenyl]amino}-4-oxobutyl)phenyl]cyclohexanecarboxylate]	0.57 nM	2.2 nM
COc1cc(NCC(=O)NCCCc2cccc(C3(C(=O)O[C@H]4CN5CCC4CC5)CCCCC3)c2)c(Cl)cc1CNC[C@H](O)c1ccc(O)c2[nH]c(=O)ccc12 [Example 30, (3R)-1-azabicyclo[2.2.2]oct-3-yl 1-{3-[3-({N-[2-chloro-4-({[(2R)-2-hydroxy-2-(8-hydroxy-2-oxo-1,2-dihydroquinolin-5-yl)ethyl]amino}methyl)-5-methoxyphenyl]glycyl}amino)propyl]phenyl}cyclohexanecarboxylate]	1.5 nM	13 nM
COc1cc(NC(=O)CCCc2ccc(C3(C(=O)O[C@H]4CN5CCC4CC5)CCCCC3)cc2)c(Cl)cc1CNC[C@H](O)c1ccc(O)c2[nH]c(=O)ccc12 [Example 31, (3R)-1-azabicyclo[2.2.2]oct-3-yl 1-[4-(4-{[2-chloro-4-({[(2R)-2-hydroxy-2-(8-hydroxy-2-oxo-1,2-dihydroquinolin-5-yl)ethyl]amino}methyl)-5-methoxyphenyl]amino}-4-oxobutyl)phenyl]cyclohexanecarboxylate]	0.41 nM	4 nM
(3R)-1-azabicyclo[2.2.2]oct-3-yl 1-(3-{4-[{[2-chloro-4-({[2-hydroxy-2-(8-hydroxy-2-oxo-1,2-dihydroquinolin-5-yl)ethyl]amino}methyl)-5-methoxyphenoxy]acetyl}(methyl)amino]butyl}phenyl)cyclohexanecarboxylate [Example 26]	0.53 nM	3 nM
